The source of these data is ChEMBL document CHEMBL4483862, “Open-source discovery of chemical leads for next-generation chemoprotective antimalarials” (2018).

Each structure is given as a SMILES string. pIC50: −log10 of the molar value.

The term pIC50 denotes the negative decadic logarithm of the IC50, by convention in mol/L. By IC90 is commonly meant the concentration needed for an effect of 90%.

This assay concerns Plasmodium berghei. The experiment in a line: Luciferase/luciferin-expressing antifolate-resistant parasites were used to infect a culture of HepG2 cells that were pre-incubated with compounds. Infected hepatocytes emit light due to the luciferase reaction. Assay results are presented as the percent inhibition of light emission compared to control. […]. The assay is classed as functional. Conditions: sporozoite; for IC90: read-out: LUCIFERASE INFECTION ASSAY - IC90.

Where [1] appears, read: read-out: LUCIFERASE INFECTION ASSAY - IC50.

Turning to `O=C(Nc1nnc(C(F)(F)F)s1)c1ccc(F)c(Cl)c1`, the IC90 came to 4.03 µM. Besides, the negative logarithm of the IC50 (pIC50) (HEPG2TOX_HILL_SLOPE 1.54, HEPG2TOX_R_SQUARED 0.943, PBLUC_HILL_SLOPE 14.8, PBLUC_R_SQUARED 0.531, read-out: LUCIFERASE INFECTION ASSAY - IC50) was 5.46.
As for `CNc1nc2cnc(-c3ccccc3C)cc2n1-c1cccc(F)c1`, the concentration for an effect of 90% (IC90) was greater than 10 µM. Further, the pIC50 under setting [1] is less than 5.00.
As for `Cc1ccc(C(c2cc(Cl)c3cccnc3c2O)N2CCCC2)cc1` (configuration not stated), the IC90 turned out to be 4.12 µM. Also, for the setting “FFLUC_HILL_SLOPE 12.7, FFLUC_R_SQUARED 0.41, HEPG2TOX_HILL_SLOPE 6.94, HEPG2TOX_R_SQUARED 0.0505, PBLUC_HILL_SLOPE 13.5, PBLUC_R_SQUARED 0.562, read-out: LUCIFERASE INFECTION ASSAY - IC50”, the pIC50 was 5.46.
As for `CCN1C(=O)N(CCc2ccccc2)C2(CCN(Cc3cccc(OC)c3)CC2)C1=O`, the IC90 is greater than 7.83 µM. Besides, the pIC50 (HEPG2TOX_HILL_SLOPE 18.8, HEPG2TOX_R_SQUARED 0.873, read-out: LUCIFERASE INFECTION ASSAY - IC50) was less than 5.11.
`CCN(CC)S(=O)(=O)c1ccc(C(C)NC(=O)c2cn(C)c3ccccc23)cc1` (configuration not stated): the IC90 turned out to be 6.07 µM. Under “PBLUC_HILL_SLOPE 2.76, PBLUC_R_SQUARED 0.764, read-out: LUCIFERASE INFECTION ASSAY - IC50”, the pIC50 was 5.56.
Turning to `COc1ccccc1-n1c(SCc2cc(=O)oc3c(C)c(C)ccc23)nc2ccccc2c1=O`, the 90% effect concentration (IC90) was greater than 10 µM. Under setting [1], the negative logarithm of the IC50 (pIC50) is less than 5.00.
On to `CN(C)c1ccc(/C=C2\CCn3c2nc2scc(-c4ccccc4)c2c3=O)cc1[N+](=O)[O-]`, for which the IC90 was greater than 10 µM. Also, the pIC50 under setting [1] is less than 5.00.
The matching figures for `N#Cc1cccnc1N1CCN(C(=O)c2cc(-c3ccccc3)nn2-c2ccccc2)CC1`: greater than 10 µM and less than 5.00.
For the compound `O=C(Cn1ncc(Cl)c(Cl)c1=O)N(CCc1ccccc1)Cc1ccccc1`, the IC90 was found to be 6.37 µM. In addition, where the note is “HEPG2TOX_HILL_SLOPE 33, HEPG2TOX_R_SQUARED 0.912, PBLUC_HILL_SLOPE 70.8, PBLUC_R_SQUARED 0.26, read-out: LUCIFERASE INFECTION ASSAY - IC50”, the pIC50 was 5.21.
On to `CNC(=O)Cc1ccc(NC(=O)CCSC)cc1`, for which the IC90 is greater than 10 µM. For the same compound, the negative logarithm of the IC50 (pIC50) under setting [1] is less than 5.00.
Consider `COc1ccc(C)cc1CCNC(=O)c1cc(C2CC2)nn1-c1ccccc1`, for which the IC90 was greater than 10 µM. Moreover, under setting [1], the negative logarithm of the IC50 (pIC50) was less than 5.00.
The matching figures for `CSc1nn(-c2ccc(C(=O)OCc3c(C)cc(C(C)(C)C)cc3C)cc2)c(=S)s1`: greater than 10 µM and less than 5.00.
Regarding `CCOc1cc(/C=C/C(=O)c2ccc(-c3ccccc3)cc2)ccc1OCC(=O)N(C)C`, the IC90 was greater than 10 µM. Further, for the setting “HEPG2TOX_HILL_SLOPE 0.976, HEPG2TOX_R_SQUARED 0.779, read-out: LUCIFERASE INFECTION ASSAY - IC50”, the negative-log IC50 (pIC50) was less than 5.00.
As to `CN(C(=O)COc1cc2ccccc2cc1C(=O)NCc1ccccc1)C1CCCCC1`, the concentration for an effect of 90% (IC90) is greater than 10 µM. For the same compound, the negative-log IC50 (pIC50) (FFLUC_HILL_SLOPE 11, FFLUC_R_SQUARED 0.0654, read-out: LUCIFERASE INFECTION ASSAY - IC50) was less than 5.00.
As for `Cc1ccc2nc(NC(=O)c3ccccc3)c(C(=O)NC3CCCC3)n2c1`, the concentration for an effect of 90% (IC90) is 3.58 µM. Moreover, the negative logarithm of the IC50 (pIC50) under setting [1] was 5.51.
On to `Clc1c(-c2c(-c3ccccc3)[nH]c3ccccc23)nc2ccccc2c1-c1ccccc1`, for which the IC90 came to 8.61 µM. Under “FFLUC_HILL_SLOPE 0.689, FFLUC_R_SQUARED 0.515, HEPG2TOX_HILL_SLOPE 2.63, HEPG2TOX_R_SQUARED 0.531, PBLUC_HILL_SLOPE 2.99, PBLUC_R_SQUARED 0.588, read-out: LUCIFERASE INFECTION ASSAY - IC50”, the negative logarithm of the IC50 (pIC50) is 5.38.
For the compound `CCC(=O)Nc1ccc(CNC(=O)N2CCN(c3ccccc3C)CC2)cc1`, the IC90 turned out to be 1.73 µM. In addition, the negative logarithm of the IC50 (pIC50) (PBLUC_HILL_SLOPE 9.1, PBLUC_R_SQUARED 0.639, read-out: LUCIFERASE INFECTION ASSAY - IC50) was 5.87.
Turning to `COc1ccc(C2c3ccsc3CCN2S(=O)(=O)c2ccc(F)c(Cl)c2)cc1` (configuration not stated), the IC90 is greater than 7.54 µM. Further, the negative-log IC50 (pIC50) (PBLUC_HILL_SLOPE 1.37, PBLUC_R_SQUARED 0.631, read-out: LUCIFERASE INFECTION ASSAY - IC50) was 5.51.
Turning to `Cc1cc2ncc(-c3ccnc(SCc4cccc(Cl)c4)n3)c(C)n2n1`, the 90% effect concentration (IC90) was found to be 8.63 µM. The pIC50 (PBLUC_HILL_SLOPE 3.9, PBLUC_R_SQUARED 0.625, read-out: LUCIFERASE INFECTION ASSAY - IC50) is 5.31.
Consider `Cn1c(N)c(C(=O)COC(=O)c2ccccc2-c2nc3ccccc3s2)c(=O)n(C)c1=O`, for which the 90% effect concentration (IC90) was greater than 10 µM. Moreover, the pIC50 (PBLUC_HILL_SLOPE 14.7, PBLUC_R_SQUARED 0.767, read-out: LUCIFERASE INFECTION ASSAY - IC50) is 5.03.
`CNC(=O)c1ccc(CN(Cc2ccco2)C(=O)Cc2ccc(-c3ccccc3)cc2)cc1`: the IC90 is greater than 10 µM. Further, the pIC50 (FFLUC_HILL_SLOPE 7.09, FFLUC_R_SQUARED 0.0104, PBLUC_HILL_SLOPE 1.93, PBLUC_R_SQUARED 0.808, read-out: LUCIFERASE INFECTION ASSAY - IC50) is 5.43.
In the case of `Nc1c(-c2ccccc2)c(CN2CCN(Cc3ccccc3)CC2)nn1-c1ccc(Cl)cc1`, the IC90 amounted to 8.97 µM. For the same compound, where the note is “HEPG2TOX_HILL_SLOPE 3.47, HEPG2TOX_R_SQUARED 0.813, PBLUC_HILL_SLOPE 2.28, PBLUC_R_SQUARED 0.79, read-out: LUCIFERASE INFECTION ASSAY - IC50”, the negative logarithm of the IC50 (pIC50) is 5.47.
Regarding `Clc1ccc(-c2nnc(-c3cc(Cl)cc(Cl)c3)o2)cc1`, the IC90 was greater than 10.1 µM. For the same compound, the pIC50 under setting [1] is less than 5.00.
As to `Cc1cc(C)n(CCCNC(=O)Cc2c(C)nc3ncnn3c2C)n1`, the IC90 is greater than 10 µM. In addition, the pIC50 under setting [1] is less than 5.00.
Turning to `O=[N+]([O-])c1ccccc1/C=N/n1c(-c2ccc(Cl)cc2)cs/c1=N\CC1CCCO1` (configuration not stated), the IC90 came to 7.09 µM. Further, under “HEPG2TOX_HILL_SLOPE 0.61, HEPG2TOX_R_SQUARED 0.914, PBLUC_HILL_SLOPE 1.45, PBLUC_R_SQUARED 0.571, read-out: LUCIFERASE INFECTION ASSAY - IC50”, the negative-log IC50 (pIC50) is 5.81.
For the compound `Cc1ccc(SCCNS(=O)(=O)c2ccc(F)cc2)cc1`, the 90% effect concentration (IC90) is greater than 10.1 µM. Moreover, under setting [1], the pIC50 was less than 5.00.
As for `O=C(/C=C/c1ccncc1)Nc1ccc(Oc2ccccc2)cc1`, the concentration for an effect of 90% (IC90) is 6.66 µM. For the same compound, the pIC50 (HEPG2TOX_HILL_SLOPE 9.03, HEPG2TOX_R_SQUARED 0.239, PBLUC_HILL_SLOPE 3.67, PBLUC_R_SQUARED 0.501, read-out: LUCIFERASE INFECTION ASSAY - IC50) was 5.44.
On to `COc1ccc2cc(CN(C)C(=O)c3cnn(Cc4ccccc4)c3)ccc2c1`, for which the IC90 is greater than 10 µM. Also, the negative-log IC50 (pIC50) under setting [1] was 5.55.
With `CN(C)c1ccc(S(=O)(=O)N2CCCCC2)cc1NC(=S)NCc1ccc2c(c1)OCO2`, the IC90 was greater than 10 µM. The negative-log IC50 (pIC50) under setting [1] is less than 5.00.
For the compound `c1ccc2c(CN3CCN(c4ncnc5sccc45)CC3)csc2c1`, the IC90 was greater than 10 µM. Also, for the setting “HEPG2TOX_HILL_SLOPE 3.07, HEPG2TOX_R_SQUARED 0.815, PBLUC_HILL_SLOPE 3.96, PBLUC_R_SQUARED 0.666, read-out: LUCIFERASE INFECTION ASSAY - IC50”, the negative-log IC50 (pIC50) is 5.16.
On to `O=C(OCN1C(=O)c2ccccc2C1=O)c1ccc(OCC2CCCO2)cc1` (configuration not stated), for which the IC90 was greater than 10 µM. For the same compound, the negative logarithm of the IC50 (pIC50) under setting [1] is less than 5.00.
As to `O=C(NCCO)c1cccc(-c2ccc3ncc(-c4cccc(CO)c4)n3n2)c1`, the IC90 stood at 3.67 µM. Also, the pIC50 (HEPG2TOX_HILL_SLOPE 1.86, HEPG2TOX_R_SQUARED 0.81, PBLUC_HILL_SLOPE 12.7, PBLUC_R_SQUARED 0.352, read-out: LUCIFERASE INFECTION ASSAY - IC50) was 5.51.
`COc1ccc2c(c1)C(=O)C(=O)N2Cc1ccccc1Cl`: the IC90 is greater than 10.9 µM. The negative logarithm of the IC50 (pIC50) (FFLUC_HILL_SLOPE 0.896, FFLUC_R_SQUARED 0.182, read-out: LUCIFERASE INFECTION ASSAY - IC50) was less than 4.96.
Turning to `CCCNc1nccn2c(-c3ccc(C(=O)NC4CC4)cc3)cnc12`, the IC90 is 7.31 µM. Moreover, the pIC50 (HEPG2TOX_HILL_SLOPE 2.37, HEPG2TOX_R_SQUARED 0.851, PBLUC_HILL_SLOPE 7.04, PBLUC_R_SQUARED 0.366, read-out: LUCIFERASE INFECTION ASSAY - IC50) is 5.27.
Regarding `Cc1ccc(S(=O)(=O)Nc2ccc(C(=O)Nc3ccccc3O)cc2)cc1C`, the IC90 was found to be 2.52 µM. Further, the negative logarithm of the IC50 (pIC50) (PBLUC_HILL_SLOPE 2.83, PBLUC_R_SQUARED 0.529, read-out: LUCIFERASE INFECTION ASSAY - IC50) is 5.94.
For `COc1ccccc1-n1c(SCC(=O)c2c[nH]c3ccccc23)nnc1-c1cccs1`, the concentration for an effect of 90% (IC90) turned out to be 0.134 µM. Moreover, where the note is “PBLUC_HILL_SLOPE 12.6, PBLUC_R_SQUARED 0.859, read-out: LUCIFERASE INFECTION ASSAY - IC50”, the pIC50 was 6.95.
Regarding `Cc1cccn2c(=O)cc(CSc3cc(C(=O)NC4CC4)c4ccccc4n3)nc12`, the 90% effect concentration (IC90) is greater than 10 µM. In addition, under setting [1], the pIC50 is less than 5.00.
The matching figures for `CN1/C(=C\C=N\NC(=O)c2cnccn2)C(C)(C)c2ccccc21`: greater than 10 µM and less than 5.00.
The matching figures for `Cn1c(CSc2cccs2)nnc1SCC(=O)Nc1ccc(F)cc1F`: greater than 8 µM and less than 5.10.
Consider `O=C(CN1C(=O)C(=O)N(CCc2cccs2)C1=O)NC(=O)Nc1ccccc1F`, for which the IC90 was greater than 10 µM. Moreover, the pIC50 (PBLUC_HILL_SLOPE 3, PBLUC_R_SQUARED 0.385, read-out: LUCIFERASE INFECTION ASSAY - IC50) is less than 5.00.
As for `Cc1nc(SCC(=O)c2cc(C)n(-c3ccccc3)c2C)c2ccsc2n1`, the 90% effect concentration (IC90) is greater than 10 µM. For the same compound, the pIC50 under setting [1] is less than 5.00.
